Data on 15 compounds can be found in patent publication EP4603105A1, “PHARMACEUTICAL COMPOSITION CONTAINING CYCLIC COMPOUND HAVING SELECTIVE KRAS INHIBITORY EFFECT AGAINST HRAS AND NRAS” (CHUGAI SEIYAKU KABUSHIKI KAISHA, priority 2022, dated 2024).

Molecules are shown by their SMILES.

Assay [1] has as its target HRAS wild-type protein (Homo sapiens, UniProt P01112). Briefly: Binding to HRAS by surface plasmon resonance (SPR), KD and KD ratio to KRAS. The settings on record: ratio of the KD value with respect to HRAS wild-type protein to the KD value with respect to KRAS. In outline:
(§1)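 Captured GDP-RAS (~100–300 RU) was exposed to increasing compound concentrations, 75 s per step, in running buffer with 10 µM GDP, 10 mM MgCl2 and 4% DMSO at pH 7.4.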
A general note: SPR reads the build-up and loss of mass on a sensor chip optically.

Assay [2] has as its target GDP-bound NRAS wild-type protein (Homo sapiens, UniProt P01111). Briefly: Binding to NRAS by surface plasmon resonance (SPR), KD and KD ratio to KRAS. Conditions: ratio of the KD value with respect to GDP-bound NRAS wild-type protein to the KD value with respect to KRAS. The procedure, abridged:
as §1

Assay [3] has as its system human lung cancer strain NCI-H441. The format is cell-based. In outline: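 Step one: dispense the test compound in serial DMSO dilutions. Step three: add the reagent and measure […].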

GDP-bound NRAS wild-type protein, sequence (P01111 whole entry): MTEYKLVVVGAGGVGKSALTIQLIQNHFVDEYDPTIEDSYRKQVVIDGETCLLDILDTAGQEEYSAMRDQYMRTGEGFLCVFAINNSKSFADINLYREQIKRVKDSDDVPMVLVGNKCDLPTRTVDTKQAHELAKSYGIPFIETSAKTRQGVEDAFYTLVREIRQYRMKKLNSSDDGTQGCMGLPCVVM
HRAS wild-type protein, sequence (P01112 whole entry): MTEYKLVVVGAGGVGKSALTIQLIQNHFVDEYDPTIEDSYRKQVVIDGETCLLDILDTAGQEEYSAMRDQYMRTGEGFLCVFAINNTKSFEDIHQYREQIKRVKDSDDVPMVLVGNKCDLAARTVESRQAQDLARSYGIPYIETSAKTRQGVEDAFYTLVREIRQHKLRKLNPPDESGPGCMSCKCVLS

For the compound `CCO[C@@H]1C[C@H]2C(=O)NC3(CC(C)(C)C3)C(=O)N(C)[C@@H](C3CCCC3)C(=O)N(C)[C@H](C(=O)N(C)CC)CC(=O)N(C)[C@H]3CCCCCc4ccc(cc4)C[C@@H](C(=O)N(C)CC(=O)N[C@@H](CCc4ccc(C(F)(F)F)c(OC)c4)C(=O)N2C1)N1CC/C=C\C[C@@H](C1=O)N(C)C(=O)CN(C)C(=O)[C@H]([C@@H](C)CC)NC3=O` [PP2259], the “HRAS /KRAS” value in assay [1] was “B (a compound having 3 or more and less than 10 is denoted as B)”. Moreover, the “NRAS /KRAS” value in assay [2] is “A (a compound having 10 or more and less than 20 is denoted as A)”. Moreover, half-maximal inhibition in assay [3] (IC50) was put at 6.5 nM.
For `CCO[C@@H]1C[C@H]2C(=O)NC3(CC(C)(C)C3)C(=O)N(C)[C@@H](C3CCCC3)C(=O)N(C)[C@H](C(=O)N(C)CC)CC(=O)N(C)[C@H]3CCCCCCc4ccc(cc4)C[C@@H](C(=O)N(C)CC(=O)N[C@@H](CCc4ccc(C(F)(F)F)c(OC)c4)C(=O)N2C1)N1CC/C=C\C[C@@H](C1=O)N(C)C(=O)CN(C)C(=O)[C@H]([C@@H](C)CC)NC3=O` [PP2260], the “HRAS /KRAS” value in assay [1] was “A (a compound having 10 or more and less than 20 is denoted as A)”. Also, in assay [2], the “NRAS /KRAS” value is “A (a compound having 10 or more and less than 20 is denoted as A)”. In addition, in assay [3], the concentration for half-maximal inhibition (IC50) – broadly, the midpoint of a concentration-inhibition curve – came to 1.9 nM.
In the case of `CCO[C@@H]1C[C@H]2C(=O)NC3(CCC3)C(=O)N(C)[C@@H](C3CCCC3)C(=O)N(C)[C@H](C(=O)N(C)C)CC(=O)N(C)[C@H]3CCCCCc4ccc(cc4)C[C@@H](C(=O)N(C)CC(=O)N[C@@H](CCc4cc(F)c(C(F)(F)F)c(F)c4)C(=O)N2C1)N1CC/C=C\C[C@@H](C1=O)N(C)C(=O)CN(C)C(=O)[C@H]([C@@H](C)CC)NC3=O` [PP2261], the “HRAS /KRAS” value in assay [1] was “A (a compound having 10 or more and less than 20 is denoted as A)”. Also, the “NRAS /KRAS” value in assay [2] is “A (a compound having 10 or more and less than 20 is denoted as A)”. The half-inhibitory concentration (IC50) in assay [3] worked out at 16.6 nM.
`CCO[C@@H]1C[C@H]2C(=O)NC3(CCC3)C(=O)N(C)[C@@H](C3CCCC3)C(=O)N(C)[C@H](C(=O)N(C)C)CC(=O)N(C)[C@H]3CCCCCc4ccc(cc4)C[C@@H](C(=O)N(C)CC(=O)N[C@@H](CCc4ccc(C(F)(F)F)c(OC)c4)C(=O)N2C1)N1CC/C=C\C[C@@H](C1=O)N(C)C(=O)CN(C)C(=O)[C@H]([C@@H](C)CC)NC3=O` [PP2262]: in assay [1], the “HRAS /KRAS” value is “B (a compound having 3 or more and less than 10 is denoted as B)”. Besides, the “NRAS /KRAS” value in assay [2] was “A (a compound having 10 or more and less than 20 is denoted as A)”. The IC50 in assay [3] was 3.8 nM.
As for `CCO[C@@H]1C[C@H]2C(=O)NC3(CCC3)C(=O)N(C)[C@@H](C3CCCC3)C(=O)N(C)[C@H](C(=O)N(C)C)CC(=O)N(C)[C@H]3CCCCCCc4ccc(cc4)C[C@@H](C(=O)N(C)CC(=O)N[C@@H](CCc4ccc(C(F)(F)F)c(OC)c4)C(=O)N2C1)N1CC/C=C\C[C@@H](C1=O)N(C)C(=O)CN(C)C(=O)[C@H]([C@@H](C)CC)NC3=O` [PP2264], the “HRAS /KRAS” value in assay [1] was “A (a compound having 10 or more and less than 20 is denoted as A)”. Further, in assay [2], the “NRAS /KRAS” value was “AA (a compound having 20 or more is denoted as AA)”. The compound further registered an IC50 in assay [3] of 13.1 nM.
Regarding `CC[C@H](C)[C@@H]1NC(=O)[C@H](CC(C)C)N(C)C(=O)C[C@@H](C(=O)N(C)C)N(C)C(=O)[C@H](C2CCCC2)N(C)C(=O)C2(CCCC2)NC(=O)[C@@H]2C[C@H](C)CN2C(=O)[C@H](CCc2cc(F)c(C(F)(F)F)c(F)c2)NC(=O)CN(C)C(=O)[C@H](Cc2ccc(C(F)(F)F)cc2)N2CC/C=C\C[C@@H](C2=O)N(C)C(=O)CN(C)C1=O` [PP2268], the “HRAS /KRAS” value in assay [1] is “A (a compound having 10 or more and less than 20 is denoted as A)”. In assay [2], the “NRAS /KRAS” value is “A (a compound having 10 or more and less than 20 is denoted as A)”. In addition, in assay [3], the IC50 was found to be 9.8 nM.
For the compound `CCO[C@@H]1C[C@H]2C(=O)NC3(CCCC3)C(=O)N(C)[C@@H](C3CCCC3)C(=O)N(C)[C@H](C(=O)N(C)C)CC(=O)N(C)[C@@H](CC(C)C)C(=O)N[C@@H]([C@@H](C)CC)C(=O)N(C)CC(=O)N(C)[C@H]3C/C=C\CCN(C3=O)[C@@H](Cc3ccc(C(F)(F)F)cc3)C(=O)N(C)CC(=O)N[C@@H](CCc3cc(F)c(Cl)c(F)c3)C(=O)N2C1` [PP2269], the “HRAS /KRAS” value in assay [1] is “A (a compound having 10 or more and less than 20 is denoted as A)”. In assay [2], the “NRAS /KRAS” value is “A (a compound having 10 or more and less than 20 is denoted as A)”. In assay [3], the IC50 turned out to be 20 nM.
Take `CCC[C@H]1C(=O)N[C@@H]([C@@H](C)CC)C(=O)N(C)CC(=O)N(C)[C@H]2C/C=C\CCN(C2=O)[C@@H](Cc2ccc(C(F)(F)F)cc2)C(=O)N(C)CC(=O)N[C@@H](CCc2ccc(C(F)(F)F)c(Cl)c2)C(=O)N2C[C@@H](C)C[C@H]2C(=O)NC2(CC(C)(C)C2)C(=O)N(C)[C@@H](C2CCCC2)C(=O)N(C)[C@H](C(=O)N(C)C)CC(=O)N1C` [PP2270]: in assay [1], the “HRAS /KRAS” value was “B (a compound having 3 or more and less than 10 is denoted as B)”. Also, the “NRAS /KRAS” value in assay [2] is “B (a compound having 3 or more and less than 10 is denoted as B)”. Further, in assay [3], the IC50 is 10.4 nM.
`CC[C@@H]1C[C@H]2C(=O)NC3(CCCC3)C(=O)N(C)[C@@H](C3CCCC3)C(=O)N(C)[C@H](C(=O)N(C)CC)CC(=O)N(C)[C@@H](C)C(=O)N[C@@H]([C@@H](C)CC)C(=O)N(C)CC(=O)N(C)[C@H]3C/C=C\CCN(C3=O)[C@@H](Cc3ccc(C(F)(F)F)cc3)C(=O)N(C)CC(=O)N[C@@H](CCc3cc(F)c(C(F)(F)F)c(F)c3)C(=O)N2C1` [PP2271]: the “HRAS /KRAS” value in assay [1] is “A (a compound having 10 or more and less than 20 is denoted as A)”. Moreover, the “NRAS /KRAS” value in assay [2] was “A (a compound having 10 or more and less than 20 is denoted as A)”. For the same compound, in assay [3], the 50% inhibitory concentration (IC50) was 60.6 nM.
On to `CCC[C@@H]1C[C@H]2C(=O)NC3(CCCC3)C(=O)N(C)[C@@H](C3CCCC3)C(=O)N(C)[C@H](C(=O)N(C)CC)CC(=O)N(C)[C@@H](C)C(=O)N[C@@H]([C@@H](C)CC)C(=O)N(C)CC(=O)N(C)[C@H]3C/C=C\CCN(C3=O)[C@@H](Cc3ccc(C(F)(F)F)cc3)C(=O)N(C)CC(=O)N[C@@H](CCc3cc(F)c(C(F)(F)F)c(F)c3)C(=O)N2C1` [PP2272], for which, in assay [1], the “HRAS /KRAS” value is “A (a compound having 10 or more and less than 20 is denoted as A)”. The “NRAS /KRAS” value in assay [2] is listed as “AA (a compound having 20 or more is denoted as AA)”. The compound also displayed an IC50 in assay [3] of 106 nM.
As for `CCC[C@@H]1C[C@H]2C(=O)NC3(CC(C)(C)C3)C(=O)N(C)[C@@H](C3CCCC3)C(=O)N(C)[C@H](C(=O)N(C)C)CC(=O)N(C)[C@@H](C)C(=O)N[C@@H]([C@@H](C)CC)C(=O)N(C)CC(=O)N(C)[C@H]3C/C=C\CCN(C3=O)[C@@H](Cc3ccc(C(F)(F)F)cc3)C(=O)N(C)CC(=O)N[C@@H](CCc3cc(F)c(C(F)(F)F)c(F)c3)C(=O)N2C1` [PP2273], in assay [1], the “HRAS /KRAS” value is “A (a compound having 10 or more and less than 20 is denoted as A)”. Besides, in assay [2], the “NRAS /KRAS” value is “AA (a compound having 20 or more is denoted as AA)”. Besides, the midpoint of inhibition in assay [3], the IC50, lay at 16 nM.
Take `CCC[C@@H]1C[C@H]2C(=O)NC3(CC(C)(C)C3)C(=O)N(C)[C@@H](C3CCCC3)C(=O)N(C)[C@H](C(=O)N(C)C)CC(=O)N(C)[C@@H](COC)C(=O)N[C@@H]([C@@H](C)CC)C(=O)N(C)CC(=O)N(C)[C@H]3C/C=C\CCN(C3=O)[C@@H](Cc3ccc(C(F)(F)F)cc3)C(=O)N(C)CC(=O)N[C@@H](CCc3ccc(C(F)(F)F)c(Cl)c3)C(=O)N2C1` [PP2275]: the “HRAS /KRAS” value in assay [1] is “A (a compound having 10 or more and less than 20 is denoted as A)”. Besides, in assay [2], the “NRAS /KRAS” value was “A (a compound having 10 or more and less than 20 is denoted as A)”. Besides, it took 12.2 nM to reach half-maximal inhibition in assay [3] (IC50).
For the compound `CCC[C@H]1C(=O)N[C@@H]([C@@H](C)CC)C(=O)N(C)CC(=O)N(C)[C@H]2C/C=C\CCN(C2=O)[C@@H](Cc2ccc(C(F)(F)F)cc2)C(=O)N(C)CC(=O)N[C@@H](CCc2ccc(C(F)(F)F)c(OC)c2)C(=O)N2C[C@H](OCC)C[C@H]2C(=O)N(C)C2(CCC2)C(=O)N(C)[C@@H](C2CCCC2)C(=O)N(C)[C@H](C(=O)N(C)C)CC(=O)N1C` [PP2312], the “HRAS /KRAS” value in assay [1] was “B (a compound having 3 or more and less than 10 is denoted as B)”. Also, in assay [2], the “NRAS /KRAS” value is “A (a compound having 10 or more and less than 20 is denoted as A)”. In assay [3], this compound yielded a half-inhibitory concentration (IC50) of 1.6 nM.
For the compound `CCC[C@H]1C(=O)N[C@@H]([C@@H](C)CC)C(=O)N(C2CC2)CC(=O)N(C)[C@H]2C/C=C\CCN(C2=O)[C@@H](Cc2ccc(C(F)(F)F)cc2)C(=O)N(C)CC(=O)N[C@@H](CCc2ccc(C(F)(F)F)c(OC)c2)C(=O)N2C[C@H](OCC)C[C@H]2C(=O)N(C)C2(CCC2)C(=O)N(C)[C@@H](C(CC)CC)C(=O)N(C)[C@H](C(=O)N(C)C)CC(=O)N1C` [PP2313], in assay [1], the “HRAS /KRAS” value is “A (a compound having 10 or more and less than 20 is denoted as A)”. Also, the “NRAS /KRAS” value in assay [2] is on record as “AA (a compound having 20 or more is denoted as AA)”. Further, half-maximal inhibition in assay [3] (IC50) required 7.4 nM.
For `CCC[C@H]1C(=O)N[C@@H]([C@@H](C)CC)C(=O)N(C2CC2)CC(=O)N(C)[C@H]2C/C=C\CCN(C2=O)[C@@H](Cc2ccc(C(F)(F)F)cc2)C(=O)N(C)CC(=O)N[C@@H](CCc2ccc(C(F)(F)F)c(OC)c2)C(=O)N2C[C@H](OCC)C[C@H]2C(=O)N(C)C2(CCC2)C(=O)N(C)[C@@H](C2CCCC2)C(=O)N(C)[C@H](C(=O)N(C)C)CC(=O)N1C` [PP2316], the “HRAS /KRAS” value in assay [1] is “A (a compound having 10 or more and less than 20 is denoted as A)”. In assay [2], the “NRAS /KRAS” value is “A (a compound having 10 or more and less than 20 is denoted as A)”. The same compound gave an IC50 in assay [3] of 1.6 nM.
